What is called MTD is the highest dose tested that stayed within the study's limit of toxicity. By Kd is commonly meant the equilibrium constant for the complex coming apart.

The source of these data is patent publication US20240132461A1, “FLAVONE DEAZA SPERMIDINE ANALOGUES AND THEIR USE TREATING CANCER” (FLORATEK PHARMA S.A., priority 2021, published 2024).

The subject of data set [1] is leukaemia cell. Briefly: Cell viability assay, leukaemia cell lines (summary). In kind it is cell-based. The conditions noted are these: summary of Table 6A; read-out: IC50, leukaemia cell growth. As for the experimental part: (§1) Antitumor activity of the compounds and doxorubicin as a positive control was assessed by using the CellTiter-Blue Cell Viability Assay (Promega, #G8082) or CellTiter-Glow® Luminescent Cell Viability assay (Promega # G7572) according to the manufacturer's instructions. The compounds were tested at 5 or 6 concentrations in half-log increments (highest concentration 30 μM-100 μM) in duplicate or triplicate well conditions.
(§2) Tumor cells were grown at 37° C. in a humidified atmosphere with 5% CO2 in RPMI 1640 or DMEM medium, supplemented with 10% (v/v) fetal calf serum and 50 μg/ml gentamicin for up to 20 passages, and were passaged once or twice weekly. Cells were harvested using TrypLE or PBS buffer containing 1 mM EDTA, and the percentage of viable cells is determined using a CASY Model TT cell counter (OMNI Life Science). Cells were harvested from exponential phase cultures, counted and plated in 96 well flat-bottom microtiter plates at a cell density depending on the cell line's growth rate (4,000-20,000 cells/well depending on the cell line's growth rate, up to 60,000 for hematological cancer cell lines) in RPMI 1640 or DMEM medium supplemented with 10% (v/v) fetal calf serum and 50 μg/ml gentamicin (140 μl/well). […] Viability of cells was quantified by the CellTiter-Blue® cell viability assay (Promega G8081) or CellTiter-Glow® Luminescent Cell Viability assay (Promega # G7572). […]

Data set [2] concerns breast cancer cell. Briefly: Cell viability assay, breast cancer cell lines (summary). To be noted: summary of Tables 4A and 4B; read-out: IC50s, breast cancer cell growth. Format: cell-based. On the procedure: as §1
(§3) Tumor cells were grown at 37° C. in a humidified atmosphere with 5% CO2 in RPMI 1640 or DMEM medium, supplemented with 10% (v/v) fetal calf serum and 50 μg/ml gentamicin for up to 20 passages, and were passaged once or twice weekly. Cells were harvested using TrypLE or PBS buffer containing 1 mM EDTA, and the percentage of viable cells is determined using a CASY Model TT cell counter (OMNI Life Science). Cells were harvested from exponential phase cultures, counted and plated in 96 well flat-bottom microtiter plates at a cell density depending on the cell line's growth rate (4,000-20,000 cells/well depending on the cell line's growth rate, up to 60,000 for hematological cancer cell lines) in RPMI 1640 or DMEM medium supplemented with 10% (v/v) fetal calf serum and 50 μg/ml gentamicin (140 μl/well). Cultures were incubated at 37° C. and 5% CO2 in a humidified atmosphere. After 24 h, 10 μl of test compounds or control medium are added, and left on the cells for another 72 h. Compounds were serially diluted in DMSO, transferred in cell culture medium, and added to the assay plates. The DMSO concentration was kept constant at <0.3% v/v across the assay plate. Viability of cells was quantified by the CellTiter-Blue® cell viability assay (Promega G8081) or CellTiter-Glow® Luminescent Cell Viability assay (Promega # G7572). Fluorescence (FU) was measured by using the EnSpire® multimode plate reader (Perkin Elmer) (excitation λ=570 nm, emission λ=600 nm) or luminescent detection of ATP in viable cells was used as parameter for proliferation. Luminescence was measured with the microplate luminometer (Promega or Perkin Elmer).
(§4) Sigmoidal concentration-response curves were fitted to the data points (test-versus-control, T/C values) obtained for each tumor model using 4 parameter non-linear curve fit (Charles River DRS Datawarehouse Software) or with GraphPad prism 5.02 software. IC50 values are reported as absolute IC50 values, being the concentration of test compound at the intersection of the concentration-response curves with T/C=50%

The subject of data set [3] is LU-01-0025. Briefly: PDX cytotoxicity assay, lung carcinoma PDX LU-01-0025. In kind it is cell-based. On the procedure:
(§5) PDX-derived cell cultures were obtained from tumors explanted from mice and isolated by mechanical and enzymatic dissociation. […] Cells were harvested and seeded in 96-wells plates at a density of 1.25 to 5×10^3 cells/well for cytotoxicity assays. Cells were incubated 48 h at 37° C. prior to addition of test molecules and vehicle (DMSO, 0.1%) at desired final concentrations. Cell viability was assessed before drugs' addition (T0) and 5 days after test molecules addition by measuring ATP cell content using CellTiter-Glo® Luminescent Cell Viability Assay (Promega) according to the manufacturer's instructions. Luciferase activity was measured on a luminometer (PerkinElmer® EnVision™). Each concentration of compounds was tested in triplicate.
(§6) Viability was calculated as a percentage of ATP value compared to vehicle treated controls.
(§7) For PDX primary cell cultures, the tumour tissue was washed with PBS containing antibiotic-antimycotic and non-tumour tissue and necrotic tumour tissues were separated. The tumour tissue was transferred to a new dish and cut into 1˜2 mm^3 fragments, resuspended in RPMI-1640 medium and centrifuged at 1,200 rpm for 6 min at room temperature. The pelleted material was resuspended with 15 mL of Tumour Cell Digestion Solution and incubated at 37° C. for 1 hour with agitation. […]

Data set [4] in a line: In vivo maximum tolerated dose in NOG mice. On the procedure:
In order to evaluate the general toxicity of selected SND compounds in an animal model, a maximum tolerated dose (MTD) in NOG mice has been undertaken. Three mice per group were treated daily or every other day over 8 days at various doses between 5 mg/kg and 10 mg/kg. Administration of the compounds was i.p. A stock solution of the compounds (40 mg/ml in DMSO) was prepared and frozen at −20° C. in aliquots for each treatment. […] Body weights were measured before each treatment. Mice were further observed for 1 week after the last treatment.

Data set [5] has as its system SU-DHL-4. Briefly: Cell viability assay, lymphoma cell line SU-DHL-4. In kind it is cell-based. The conditions noted are these: Homo sapiens; SU-DHL-4 lymphoma cell line. On the procedure: as §1, §2
Data set [6] addresses T1, PIM2 (Homo sapiens, UniProt Q9P1W9).
T1 construct: purchased Eurofins (KINOMEscan assay service); host or cells: E. coli BL21-derived (T7 phage) or HEK-293
Briefly: KINOMEscan competition binding assay, PIM2. An excerpt:
The Hill Slope was set to −1.

Data set [7] has as its system CH-17-0091. Briefly: PDX cytotoxicity assay, bile duct PDX CH-17-0091. In kind it is cell-based. As for the experimental part:
as §5, §6, §7

The test system of data set [8] is DOHH-2. Briefly: Cell viability assay, lymphoma cell line DOHH-2. Format: cell-based. The conditions noted are these: Homo sapiens; DOHH-2 lymphoma cell line. As for the experimental part:
as §1, §2

The test system of data set [9] is U87MG human glioblastoma cells. Briefly: In vivo tumour inhibition of xenograft human glioblastoma U87MG. To be noted: 10 mg/kg/inj i.p. qod. On the technique in general: Xenograft models place foreign cells or tissue in a host animal.
The test system of data set [10] is ST-02-0322. Briefly: PDX cytotoxicity assay, stomach PDX ST-02-0322. Format: cell-based. On the procedure:
as §5, §6, §7

Data set [11] relates to MCF-7. Briefly: Cell viability assay, breast carcinoma cell line MCF-7. Format: cell-based. To be noted: Homo sapiens, MCF7; MCF-7 breast carcinoma cell line. As for the experimental part: as §1, §2
Data set [12] relates to NCI-H1299. Briefly: Cell viability assay, non-small cell lung carcinoma cell line NCI-H1299. In kind it is cell-based. To be noted: Homo sapiens. On the procedure:
as §1, §3, §4

For data set [13], the system named is ES-06-0122. Briefly: PDX cytotoxicity assay, esophagus PDX ES-06-0122. Format: cell-based. As for the experimental part: as §5, §6, §7
Data set [14] has as its system MOLT-16. Briefly: Cell viability assay, leukaemia cell line MOLT-16. To be noted: Homo sapiens; MOLT-16 leukaemia cell line. In kind it is cell-based. As for the experimental part:
as §1, §2

T1 sequence (Q9P1W9 whole entry): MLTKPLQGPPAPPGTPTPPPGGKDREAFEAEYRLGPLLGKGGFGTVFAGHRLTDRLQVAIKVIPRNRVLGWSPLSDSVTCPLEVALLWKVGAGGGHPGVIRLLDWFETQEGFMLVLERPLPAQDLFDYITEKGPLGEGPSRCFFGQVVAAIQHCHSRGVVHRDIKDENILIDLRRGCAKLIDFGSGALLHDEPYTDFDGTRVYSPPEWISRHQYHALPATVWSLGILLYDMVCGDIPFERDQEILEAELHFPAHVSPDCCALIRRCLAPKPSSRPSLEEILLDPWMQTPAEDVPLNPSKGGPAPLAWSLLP

As to `COc1c(O)ccc2c(=O)cc(-c3ccc(CNCCCCNCCCN)cc3)oc12` [SND164], the IC50 is less than 10 µM in data set [1]; less than 10 µM in data set [2]; 5 µM in data set [3]; 3.3 µM in [5]; 13.8 µM in data set [7]; 4.3 µM in data set [8]. Moreover, the IC50 in [10] was determined as 5.45 µM; in [11], 4.3 µM; in data set [12], 1.25 µM; in [13], 5.7 µM; in [14] it was 4.36 µM. The “tolerability at the highest dose administered” value in data set [4] (8-10 mg/kg i.p., daily or every other day over 8 days) is listed as “well tolerated”. In addition, in [4] (mouse, in vivo, ip, repeated i.p. administration, MTD not reached, read-out: maximum tolerated dose (MTD), estimated), the maximal tolerated dose (MTD) at 8 days is greater than 10 mg/kg. The compound also came in with a Kd in data set [6] of 0.63 µM. For the same compound, the body weight loss entry in data set [9] (U87MG xenograft mice) is given as “no significant body weight loss”. Further, the “death during the study” value in data set [9] (U87MG xenograft mice) is listed as “no death”. The “tolerability of the treatment” value in data set [9] (U87MG xenograft mice) is on record as “well tolerated”. Moreover, the “Optimum T/C, day 26” value in data set [9] (glioblastoma U87MG CDX s.c. in nude mice, 10 injections, ***P < 0.001 vs vehicle) is reported as 54***.
